This is an account of results in article PMC9324199 (Angewandte Chemie (International Ed. in English), 2022).

The target of the experiment is 5-HT2A (Homo sapiens, UniProt P28223). Briefly: PDSP radioligand binding.
5-HT2A, sequence (P28223 whole entry, species assumed): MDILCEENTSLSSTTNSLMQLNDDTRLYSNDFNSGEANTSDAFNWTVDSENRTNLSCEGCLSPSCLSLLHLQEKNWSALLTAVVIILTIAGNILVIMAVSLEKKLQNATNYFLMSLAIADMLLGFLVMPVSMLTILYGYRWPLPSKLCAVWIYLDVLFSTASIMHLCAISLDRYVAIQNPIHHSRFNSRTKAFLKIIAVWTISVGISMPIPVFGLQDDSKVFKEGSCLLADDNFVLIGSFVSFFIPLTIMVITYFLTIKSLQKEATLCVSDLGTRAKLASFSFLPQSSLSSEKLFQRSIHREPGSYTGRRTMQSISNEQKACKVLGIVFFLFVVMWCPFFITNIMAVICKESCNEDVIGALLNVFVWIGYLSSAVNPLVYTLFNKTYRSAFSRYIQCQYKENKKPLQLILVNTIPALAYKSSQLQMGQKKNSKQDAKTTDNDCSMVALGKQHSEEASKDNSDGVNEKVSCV

`COc1ccc(N=Nc2ccc3[nH]cc(CCN(C)C)c3c2)cc1` [2h] came in with a Ki of 225 nM.

As usually defined, the Ki is the dissociation constant of the complex between target and ligand, obtained from inhibition or displacement.
